We go through 2 molecules from US10022372B2, “Caveolin-1 related methods for treating glioblastoma with temozolomide” (THOMAS JEFFERSON UNIVERSITY, priority 2013, dated 2018).

In series [1] the test system is Cav-1 overexpressing U-87MG cells (LV105 Cav-1). The experiment in a line: Annexin V / propidium iodide flow cytometry of TMZ-treated U-87MG cells. The series is classed as cell-based, human. How it is done:
FIG. 5. […] Each group is normalized to its own DMSO control (*p<0.05 and **p<0.01 vs internal DMSO control, \p<0.01 vs TMZ treated LV105 control, n=3 per group).
U-87MG cells (50,000/well) were plated in 12-well tissue culture dishes and allowed to attach overnight prior to changing their medium into complete EMEM containing either 500 μM TMZ or DMSO control and culturing them for an additional 72 hours. Cells were then trypsinized, centrifuged at 300×g for 5 min and resuspended in binding buffer with APC-conjugated anti-Annexin V antibody (BP Biosciences) and 0.33 μg/ml Propidium Iodide (PI, KPL, Gaithersburg, Md.). All samples were run on a BD FACSCalibur flow cytometer (BD Biosciences). Cells were quantified according to staining as follows: viable (Annexin V negative, PI negative), early apoptotic (Annexin V positive, PI negative), late apoptotic (Annexin V positive, PI positive), and dead (Annexin V negative, PI positive).
(In general: In flow cytometry, cells or beads pass a laser one at a time.)

The conditions of series [2]: cited from earlier work.
Series [3] relates to three different GBM-derived cell lines. The following applies: in vitro administration, Boyden-chamber assay; cited from earlier work.

`Cn1nnc2c(C(N)=O)ncn2c1=O` [temozolomide, 3,4-dihydro-3-methyl-4-oxoimidazo[5,1-d]-αs-tetrazine-8-carboxamide]: the “increase in early apoptotic cells compared to TMZ-treated LV105 control cells” value in series [1] (Cav-1 overexpressing U-87MG cells, 500 μM, 72 hours, p<0.01) is on record as more than 400%. For the same molecule, in series [1] (Homo sapiens, U-87 MG, 72 h, read-out: reduction in cell viability compared to TMZ treated LV105 control cells), the cytotoxicity at 500 µM was 5.5%. Also, the “stability at acidic pH” value in series [2] (pH <5) is reported as “stable”. In addition, in series [2] (pH >7), the “stability at pH>7” value is given as “labile”.

B1: full length Cav-1: full length Caveolin-1 protein administered in vitro (protein, UniProt Q03135 1-178, looked up)
chain: MSGGKYVDSEGHLYTVPIREQGNIYKPNNKAMADELSEKQVYDAHTKEIDLVNRDPKHLNDDVVKIDFEDVIAEPEGTHSFDGIWKASFTTFTVTKYWFYRLLSALFGIPMALIWGIYFAILSFLHIWAVVPCIKSFLIEIQCISRVYSIYVHTVCDPLFEAVGKIFSNVRINLQKEI
modifications: full-length
notes: full length Caveolin-1 protein administered in vitro
Regarding B1, in series [3], the invasion entry was “prevented invasion”.
